Reference: PubChem BioAssay AID1996
In brackets after ≈: the same amount, converted by molar mass.

Conditions: buffer; pH 7.4; 200.0 µM

Structure (SMILES)	solubility kinetic [µg/mL]
CC(C)(C)c1ccc(C(=O)NC(=O)CSc2n[nH]c(N)n2)cc1	> 50
O=C(OCc1cc2ccccc2[nH]c1=O)c1ccc([N+](=O)[O-])cc1	1.1 (≈ 3.39 µM)
Cc1oc(-c2ccc(Cl)cc2)cc1C(=O)/C(C#N)=C/Nc1ccccc1	1.4 (≈ 3.86 µM)
CNC(=S)Nc1ccc([N+](=O)[O-])c(C)c1	32.3 (≈ 143 µM)
Cc1ccc(C(=O)Nc2ccc(C(=O)N3CCCCC3)cc2)o1	> 46.9
O=C1CN(S(=O)(=O)c2ccccc2)c2ccccc2N1	> 43.2
COc1ccc(OC)c(S(=O)(=O)N2CCc3ccccc3C2)c1	22.1 (≈ 66.3 µM)
CC(C)N1C(=O)C(=O)N(CC(=O)N(C)c2ccccc2)C1=O	> 45.5
CCOC(=O)CNC(=O)c1sc(NC(=O)/C=C/c2ccccc2)nc1C	0.3 (≈ 0.803 µM)
CN(C)/C=N/c1ncc(C(=O)c2ccc(-c3ccccc3)cc2)s1	1.1 (≈ 3.28 µM)
CN(Cc1ccccc1)C(=O)c1ccco1	30.3 (≈ 141 µM)
CCc1cccc(C)c1NC(=O)c1ccc2c(c1)CCN2S(C)(=O)=O	19.3 (≈ 53.8 µM)
Cc1ccccc1NS(=O)(=O)c1cccc2nonc12	> 43.4
Cc1ccc(NC(=O)c2ccc(OCc3c(C)noc3C)cc2)cc1	< 0.4
CC(C)CC(NC(N)=O)C(=O)NCCc1ccc(Cl)cc1 (stereo not given)	> 46.8
COc1ccc(C(=O)Nc2ccc(C3CC3(Cl)Cl)cc2)cc1 (stereo not given)	< 0.7
Cc1cc(C)c(C#N)c(SCC(=O)C2CC2)n1	3.6 (≈ 14.6 µM)
O=c1oc2ccccc2c(O)c1Cc1cc(Cl)c2cccnc2c1O	> 53.1
COc1ccc(Cl)cc1C(=O)NCc1ccco1	31.8 (≈ 120 µM)
CN1CCN(C(=O)c2ccc(CNS(=O)(=O)c3ccc(F)c(Cl)c3)cc2)CC1	59.4 (≈ 139 µM)

Structure (SMILES)	solubility kinetic [µg/mL]
c1ccc(CCCN2CCOCC2)cc1	19.2 (≈ 93.5 µM)
CC(C#N)OC(=O)c1cccnc1SCC(=O)Nc1ccc2c(c1)OCO2 (stereo not given)	20.8 (≈ 54 µM)
COc1ccc(S(=O)(=O)N2CCOCC2)cc1NC(=O)CSc1nnc(C2CC2)n1C	> 70.1
COc1cc2c(cc1OC)C(C)N(C(=O)Nc1cc(C)cc(C)c1)CC2 (stereo not given)	2.7 (≈ 7.62 µM)
Cc1ccc(SCCSc2nc(N)cc(=O)[nH]2)cc1	6.7 (≈ 22.8 µM)
Cc1ccc(S(=O)(=O)NC(=O)c2ccccc2F)cc1	> 44
CCOC(=O)c1ccc(Nc2nc(C)cc(C)n2)cc1	0.2 (≈ 0.737 µM)
COS(=O)(=O)[O-].Cn1c(Cc2ccccc2)[n+](C)c2ccccc21	50.7
CCN(CC(=O)Nc1cc(Cl)ccc1C)C(=O)CC1CCCC1	> 50.5
Cc1cc(NC(=O)Nc2ccccc2Cl)no1	36.2 (≈ 144 µM)
CCCNC(=O)C12CCC(C)(C(=O)O1)C2(C)C (stereo not given)	> 35.9
O=C(CC1SCCNC1=O)Nc1cccc([N+](=O)[O-])c1 (stereo not given)	> 44.3
COc1ccc2ccccc2c1CNC(C)c1ccccc1.O=C(O)C(=O)O (stereo not given)	> 57.2
N#Cc1ccccc1COC(=O)CCC(=O)c1cccs1	> 44.9
O=C(COC(=O)c1c(F)cccc1Cl)NC1CCCCC1	> 47.1
O=C(OCc1cncs1)c1cccs1	> 33.8
CC(Cc1ccccc1)NC(=O)CC(c1ccccc1)c1ccccc1O (stereo not given)	10.8 (≈ 30 µM)
CC(C)(C)c1ccc(C(=O)O/N=C(\N)c2ccccn2)cc1	2.4 (≈ 8.07 µM)
O=C(NCCCNC(=O)c1cc(Cl)ccc1Cl)c1cnccn1	45.4 (≈ 129 µM)
Cc1cc(N)c2ccccc2n1	> 23.7

Structure (SMILES)	solubility kinetic [µg/mL]
Cn1c(-c2ccc(F)cc2)cnc1NCc1ccc(F)cc1F	34.9 (≈ 110 µM)
CCN(Cc1ccccc1)Cc1nc(CCc2ccccc2)no1	1.4 (≈ 4.36 µM)
CCSCc1nnc(SCC(=O)Nc2nccs2)n1CC	> 51.5
Cc1nccn1CC1CCc2c(c3ccccc3n2C)C1=O.Cl (stereo not given)	47.7
N#Cc1c(N)n(-c2ccc(C(=O)O)cc2)c2nc3ccccc3nc12	28.5 (≈ 86.5 µM)
COCCN(C(=O)CSc1ccc2c(c1)OCCO2)c1c(N)n(CC(C)C)c(=O)[nH]c1=O	> 69.7
NS(=O)(=O)c1ccc(F)c(C(=O)O)c1	> 32.9
COc1cccc(OC)c1C(=O)NC(=S)NCc1cccnc1	11.3 (≈ 34.1 µM)
Cc1ccc2c(C(=O)CN3CC(C)CC(C)C3)c(C)[nH]c2c1 (stereo not given)	38.6 (≈ 129 µM)
CC(C)(C)c1ccc(OCCCN2CCCC2)cc1	28.6 (≈ 109 µM)
Cc1ccccc1OCC(=O)Nc1nc(-c2ccncc2)cs1	4.9 (≈ 15.1 µM)
O=S(=O)(Nc1ccccc1F)c1ccc(Cl)nc1	> 43
O=C(COC(=O)c1cc(S(=O)(=O)N2CCOCC2)ccc1O)Nc1ccc2c(c1)OCO2	> 69.7
Cc1ccc2c(COC(=O)C3CSC4(C)CCC(=O)N34)cc(=O)oc2c1C (stereo not given)	38.4 (≈ 99.1 µM)
CCc1ccc(N2CCN(CCNC(=O)Nc3ccccc3)CC2)cc1	1.3 (≈ 3.69 µM)
CCS(=O)(=O)c1ccc2oc(Nc3cccc(OC)c3)nc2c1	8.2 (≈ 24.7 µM)
O=c1cc(CN2CCOCC2)c2cc(Cl)ccc2o1	> 42
O=C(COC(=O)/C=C/c1ccccc1[N+](=O)[O-])NC1CC1	> 43.5
O=C(O)c1cccc2c1C(=O)N(Cc1ccccc1)C2	> 40.1
CN(Cc1cn(C)nc1-c1ccccc1F)Cc1nccn1C	> 47
